Assay [1] deals with KRAS G12C in NCI-H358 cells. Kind of assay: pERK inhibition assay, NCI-H358. Type of assay: cell-based, human. As to conditions: Homo sapiens, 4 hours incubation. The procedure, abridged: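 NCI-H358, AGS and SW620 cells in RPMI-1640/10% FBS were plated overnight, then exposed to compound (0.5% DMSO final) for 4 h. After fixation and permeabilization, phospho-ERK was quantified by in-cell ELISA (HRP secondary, TMB, OD450); IC50 from a 4-parameter sigmoidal fit.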

In another assay the test system is SW620 cells. Kind of assay: Cell viability assay, SW620. Type of assay: cell-based, human. The settings on record: Homo sapiens, SW-620, SW620, 72 hours, Cell Counting Kit-8, read-out: G12V IC50. The procedure, abridged: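 Cells were plated at 5,000 (NCI-H358) or 2,000 (AGS, SW620) per well and incubated overnight. They were then treated with compound in 0.5% DMSO for 72 h. Viability was read with CCK-8 as OD450 minus OD650 after 2 h, and IC50 came from a 4-parameter sigmoidal fit.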
For orientation: Tetrazolium assays rely on reduction of a dye to a coloured formazan, in cell work by metabolically active cells.

Each structure is given as a SMILES string.

Turning to `CO[C@@H](C)c1ncc(N2CCOCC2)cc1-c1c2c3cc(ccc3n1CC(F)(F)F)-c1csc(n1)C[C@H](NC(=O)[C@H](C(C)C)N(C)C(=O)[C@H]1CCN(C(=O)[C@H](F)Cl)C1)C(=O)N1CCC[C@H](N1)C(=O)OCC(C)(C)C2` (atropisomer, axis not shown; (M)) [Example 25, (3S)-1-[(2R)-2-chloro-2-fluoro-acetyl]-N-[(1S)-1-[[(7S,13S)-(20M)-20-[2-[(1S)-1-methoxyethyl]-5-morpholino-3-pyridyl]-17,17-dimethyl-8,14-dioxo-21-(2,2,2-trifluoroethyl)-15-oxa-4-thia-9,21,27,28-tetrazapentacyclo[17.5.2.12,5.19,13.022,26]octacosa-1(25),2,5(28),19,22(26),23-hexaen-7-yl]carbamoyl]-2-methyl-propyl]-N-methyl-pyrrolidine-3-carboxamide], the IC50 (commonly the concentration at which inhibition is half-maximal) is 1 nM in assay [1] and 6 nM in the assay with SW620 cells.
